Measurements: patent US5140014A (Abbott Laboratories, priority 1989, dated 1992)
Values after ≈ are worked out from the molar mass of the structure shown. Read-outs that look alike come from different tables or passages of the source.

What was measured:
Experiment in all cases: in vitro antibacterial activity, agar dilution method (MIC)
Type in all cases: cell-based
Streptococcus Bovis = details: Streptococcus equinus, strain A5169; BHI agar, 20-24 hours; read-out: MIC
How it was run: (§1)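 Agar dilution in Brain Heart Infusion agar, usually 12 two-fold dilutions from a 2,000 ug/mL stock. Overnight BHI broth cultures were diluted 1:100 (1:10 for slow growers such as Streptococcus), and ~10^4 organisms were spotted per plate. MIC read after 20-24 h at 35°-37° C as lowest concentration giving no growth, slight haze or sparse colonies versus growth control.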

Enterococcus Faecium = details: BHI agar, 20-24 hours
How it was run: as §1

[1] = system: Staphylococcus Epidermidis; details: strain 3519, BHI agar, 20-24 hours
How it was run: as §1

Enterobacter Aerogenes = details: BHI agar, 20-24 hours
How it was run: as §1

Acinetobacter Sp = details: strain CMX 669, BHI agar, 20-24 hours
How it was run: as §1

Staphylococcus Aureus = details: BHI agar, 20-24 hours
How it was run: as §1

Haemophilus Influenzae = details: BHI agar, 20-24 hours
How it was run: as §1

Klebsiella Pneumoniae = details: BHI agar, 20-24 hours
How it was run: as §1

Micrococcus Luteus = details: BHI agar, 20-24 hours
How it was run: as §1

Providencia Stuartii = details: Providencia stuartii; strain CMX 640; BHI agar, 20-24 hours; read-out: MIC
How it was run: as §1

Pseudomonas Aeruginosa = details: BHI agar, 20-24 hours
How it was run: as §1

Streptococcus Pyogenes = details: BHI agar, 20-24 hours
How it was run: as §1

Streptococcus Agalactiae = details: strain CMX 508, BHI agar, 20-24 hours
How it was run: as §1

Pseudomonas Cepacia = details: Burkholderia cepacia; strain 296I; BHI agar, 20-24 hours; read-out: MIC
How it was run: (§2)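 Agar dilution on BHI agar, typically 12 two-fold dilutions prepared from a 2,000 ug/mL stock solution. Plates were spot-inoculated with about 10^4 organisms from overnight BHI broth cultures, then incubated 20-24 h at 35°-37° C. MIC was the lowest concentration giving no growth, a slight haze or sparse isolated colonies compared with the growth control.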

Escherichia Coli = details: BHI agar, 20-24 hours
How it was run: as §2

[2] = Haemophilus influenzae, ATCC9795, strain ATCC 9795, read-out: MIC
[3] = Haemophilus influenzae, ATCC19418, strain ATCC 19418, read-out: MIC
[4] = Haemophilus influenzae, strain 566A, read-out: MIC
[5] = Haemophilus influenzae, strain 632A, read-out: MIC
[6] = Haemophilus influenzae, strain 747C, read-out: MIC
[7] = Haemophilus influenzae, strain SOL AMP R, read-out: MIC
[8] = Haemophilus influenzae, strain SPK AMP R, read-out: MIC
[9] = Micrococcus luteus, ATCC9341, strain ATCC 9341, read-out: MIC
[10] = Pseudomonas aeruginosa, strain A5007, read-out: MIC
[11] = Pseudomonas aeruginosa, strain BMH10, read-out: MIC
[12] = Pseudomonas aeruginosa, strain K799/WT, read-out: MIC
[13] = Streptococcus pyogenes, strain 930 CONST, read-out: MIC
[14] = Streptococcus pyogenes, strain EES61, read-out: MIC
[15] = Escherichia coli, strain SS, read-out: MIC

CCC1OC(=O)CC(O)C(C)C(OC2OC(C)CC(N(C)C)C2O)C(CC=O)CC(C)C(N(C)C)CCC2(C)OC2C1C (centres unmarked) [Example 2, [9R]-9-Deoxo-10,11-dihydro-9-N,N-dimethylamino-rosaramicin]
MIC (Streptococcus Bovis): 1.56 µg/mL (≈ 2.55 µM) | MIC (Enterococcus Faecium; strain ATCC 8043): 12.5 µg/mL (≈ 20.4 µM) | MIC [1]: 25 µg/mL (≈ 40.8 µM) | MIC (Enterobacter Aerogenes; strain ATCC 13048): 100 µg/mL (≈ 163 µM) | MIC (Acinetobacter Sp): 25 µg/mL (≈ 40.8 µM) | MIC (Staphylococcus Aureus; strain 45): 25 µg/mL (≈ 40.8 µM) | MIC (Staphylococcus Aureus; strain 45 RAR2): 25 µg/mL (≈ 40.8 µM) | MIC (Staphylococcus Aureus; strain 642A): 50 µg/mL (≈ 81.6 µM) | MIC (Staphylococcus Aureus; strain A5177): 25 µg/mL (≈ 40.8 µM) | MIC (Staphylococcus Aureus; strain ATCC 6538P): 25 µg/mL (≈ 40.8 µM) | MIC (Staphylococcus Aureus; strain CMX 553): 25 µg/mL (≈ 40.8 µM) | MIC (Staphylococcus Aureus; strain NCTC 10649): 25 µg/mL (≈ 40.8 µM) | MIC (Haemophilus Influenzae; [2]): 2 µg/mL (≈ 3.26 µM) | MIC (Haemophilus Influenzae; [3]): 4 µg/mL (≈ 6.53 µM) | MIC (Haemophilus Influenzae; Haemophilus influenzae, ATCC43095, strain ATCC 43095, read-out: MIC): 4 µg/mL (≈ 6.53 µM) | MIC (Haemophilus Influenzae; [4]): 2 µg/mL (≈ 3.26 µM) | MIC (Haemophilus Influenzae; Haemophilus influenzae, strain 588A, read-out: MIC): 2 µg/mL (≈ 3.26 µM) | MIC (Haemophilus Influenzae; [5]): 2 µg/mL (≈ 3.26 µM) | MIC (Haemophilus Influenzae; [6]): 2 µg/mL (≈ 3.26 µM) | MIC (Haemophilus Influenzae; [7]): 2 µg/mL (≈ 3.26 µM) | MIC (Haemophilus Influenzae; [8]): 0.5 µg/mL (≈ 0.816 µM) | MIC (Haemophilus Influenzae; strain 503B): 2 µg/mL (≈ 3.26 µM) | MIC (Haemophilus Influenzae; strain 504): 2 µg/mL (≈ 3.26 µM) | MIC (Haemophilus Influenzae; strain 519A): 1 µg/mL (≈ 1.63 µM) | MIC (Haemophilus Influenzae; strain 667A): 2 µg/mL (≈ 3.26 µM) | MIC (Haemophilus Influenzae; strain 751): 1 µg/mL (≈ 1.63 µM) | MIC (Haemophilus Influenzae; strain 1177): 0.25 µg/mL (≈ 0.408 µM) | MIC (Haemophilus Influenzae; strain 1435): 1 µg/mL (≈ 1.63 µM) | MIC (Haemophilus Influenzae; strain ATCC 10211): 2 µg/mL (≈ 3.26 µM) | MIC (Klebsiella Pneumoniae; strain ATCC 8045): 25 µg/mL (≈ 40.8 µM) | MIC (Micrococcus Luteus; [9]): 3.1 µg/mL (≈ 5.06 µM) | MIC (Micrococcus Luteus; strain ATCC 4698): 6.2 µg/mL (≈ 10.1 µM) | MIC (Providencia Stuartii): > 100 µg/mL | MIC (Pseudomonas Aeruginosa; [10]): > 100 µg/mL | MIC (Pseudomonas Aeruginosa; [11]): > 100 µg/mL | MIC (Pseudomonas Aeruginosa; [12]): > 100 µg/mL | MIC (Pseudomonas Aeruginosa; strain K799/61): 3.1 µg/mL (≈ 5.06 µM) | MIC (Streptococcus Pyogenes; [13]): > 100 µg/mL | MIC (Streptococcus Pyogenes; [14]): 3.1 µg/mL (≈ 5.06 µM) | MIC (Streptococcus Pyogenes; strain 2548 INDUC): 6.2 µg/mL (≈ 10.1 µM) | MIC (Streptococcus Agalactiae): 3.1 µg/mL (≈ 5.06 µM) | MIC (Pseudomonas Cepacia): > 100 µg/mL | MIC (Escherichia Coli; [15]): 0.2 µg/mL (≈ 0.326 µM) | MIC (Escherichia Coli; strain DC-2): 50 µg/mL (≈ 81.6 µM) | MIC (Escherichia Coli; strain JUHL): 100 µg/mL (≈ 163 µM) | MIC (Escherichia Coli; strain KNK 437): 50 µg/mL (≈ 81.6 µM)

CCC1OC(=O)CC(O)C(C)C(OC2OC(C)C(O)C(N(C)C)C2O)C(CC=O)CC(C)C(N(C)C)CCC(C)=CC1COC(C)=O (centres unmarked) [Example 6, [9R]-23-O-Acetyl-9-deoxo-10,11-dihydro-9-N,N-dimethylamino-5-O-mycaminosyl-tylonide]
MIC (Streptococcus Bovis): 0.1 µg/mL (≈ 0.149 µM) | MIC (Enterococcus Faecium; Enterococcus faecium, ATCC8043, strain ATCC 8043, read-out: MIC): 1.56 µg/mL (≈ 2.33 µM) | MIC ([1]; Staphylococcus epidermidis, read-out: MIC): 3.1 µg/mL (≈ 4.62 µM) | MIC (Enterobacter Aerogenes; Klebsiella aerogenes, ATCC13048, strain ATCC 13048, read-out: MIC): > 100 µg/mL | MIC (Acinetobacter Sp; Acinetobacter, read-out: MIC): > 100 µg/mL | MIC (Staphylococcus Aureus; Staphylococcus aureus, ATCC6538P, strain ATCC 6538P, read-out: MIC): 3.1 µg/mL (≈ 4.62 µM) | MIC (Staphylococcus Aureus; Staphylococcus aureus, NCTC10649, strain NCTC 10649, read-out: MIC): 3.1 µg/mL (≈ 4.62 µM) | MIC (Staphylococcus Aureus; Staphylococcus aureus, strain 45, read-out: MIC): 3.1 µg/mL (≈ 4.62 µM) | MIC (Staphylococcus Aureus; Staphylococcus aureus, strain 45 RAR2, read-out: MIC): 6.2 µg/mL (≈ 9.24 µM) | MIC (Staphylococcus Aureus; Staphylococcus aureus, strain 642A, read-out: MIC): 6.2 µg/mL (≈ 9.24 µM) | MIC (Staphylococcus Aureus; Staphylococcus aureus, strain A5177, read-out: MIC): 3.1 µg/mL (≈ 4.62 µM) | MIC (Staphylococcus Aureus; Staphylococcus aureus, strain CMX 553, read-out: MIC): 6.2 µg/mL (≈ 9.24 µM) | MIC (Haemophilus Influenzae; [2]): 4 µg/mL (≈ 5.96 µM) | MIC (Haemophilus Influenzae; Haemophilus influenzae, ATCC10211, strain ATCC 10211, read-out: MIC): 4 µg/mL (≈ 5.96 µM) | MIC (Haemophilus Influenzae; [3]): 8 µg/mL (≈ 11.9 µM) | MIC (Haemophilus Influenzae; Haemophilus influenzae, strain 504, read-out: MIC): 2 µg/mL (≈ 2.98 µM) | MIC (Haemophilus Influenzae; Haemophilus influenzae, strain 519A, read-out: MIC): 2 µg/mL (≈ 2.98 µM) | MIC (Haemophilus Influenzae; [4]): 8 µg/mL (≈ 11.9 µM) | MIC (Haemophilus Influenzae; [5]): 8 µg/mL (≈ 11.9 µM) | MIC (Haemophilus Influenzae; [6]): 8 µg/mL (≈ 11.9 µM) | MIC (Haemophilus Influenzae; Haemophilus influenzae, strain 751, read-out: MIC): > 16 µg/mL | MIC (Haemophilus Influenzae; Haemophilus influenzae, strain 1177, read-out: MIC): 0.25 µg/mL (≈ 0.373 µM) | MIC (Haemophilus Influenzae; Haemophilus influenzae, strain 1435, read-out: MIC): 4 µg/mL (≈ 5.96 µM) | MIC (Haemophilus Influenzae; Haemophilus influenzae, strain DILL AMP R, read-out: MIC): 4 µg/mL (≈ 5.96 µM) | MIC (Haemophilus Influenzae; [7]): 8 µg/mL (≈ 11.9 µM) | MIC (Haemophilus Influenzae; [8]): 8 µg/mL (≈ 11.9 µM) | MIC (Haemophilus Influenzae; strain 503B): 8 µg/mL (≈ 11.9 µM) | MIC (Haemophilus Influenzae; strain ATCC 43095): 8 µg/mL (≈ 11.9 µM) | MIC (Klebsiella Pneumoniae; Klebsiella pneumoniae, ATCC8045, strain ATCC 8045, read-out: MIC): > 100 µg/mL | MIC (Micrococcus Luteus; Micrococcus luteus, ATCC4698, strain ATCC 4698, read-out: MIC): 1.56 µg/mL (≈ 2.33 µM) | MIC (Micrococcus Luteus; [9]): 0.78 µg/mL (≈ 1.16 µM) | MIC (Providencia Stuartii): > 100 µg/mL | MIC (Pseudomonas Aeruginosa; [10]): > 100 µg/mL | MIC (Pseudomonas Aeruginosa; [11]): > 100 µg/mL | MIC (Pseudomonas Aeruginosa; Pseudomonas aeruginosa, strain K799/61, read-out: MIC): 6.2 µg/mL (≈ 9.24 µM) | MIC (Pseudomonas Aeruginosa; [12]): > 100 µg/mL | MIC (Streptococcus Pyogenes; [13]): > 100 µg/mL | MIC (Streptococcus Pyogenes; Streptococcus pyogenes, strain 2548 INDUC, read-out: MIC): 3.1 µg/mL (≈ 4.62 µM) | MIC (Streptococcus Pyogenes; [14]): 0.39 µg/mL (≈ 0.581 µM) | MIC (Streptococcus Agalactiae; Streptococcus agalactiae, read-out: MIC): 0.39 µg/mL (≈ 0.581 µM) | MIC (Pseudomonas Cepacia): > 100 µg/mL | MIC (Escherichia Coli; Escherichia coli, strain DC-2, read-out: MIC): 100 µg/mL (≈ 149 µM) | MIC (Escherichia Coli; Escherichia coli, strain JUHL, read-out: MIC): > 100 µg/mL | MIC (Escherichia Coli; Escherichia coli, strain KNK 437, read-out: MIC): > 100 µg/mL | MIC (Escherichia Coli; [15]): 1.56 µg/mL (≈ 2.33 µM) | MIC (Escherichia Coli; strain H560): 50 µg/mL (≈ 74.5 µM)
